Here are results for four compounds from patent publication US20240208907A1, “GPR52 MODULATORS AND METHODS OF USE” (Neurocrine Biosciences, Inc., priority 2021, published 2024).

SMILES strings stand for the structures. Bounds are passed on as bounds.

This test deals with T1, recombinant human GPR52 (Homo sapiens, UniProt Q9Y2T5).
T1 construct: expressed in transfected cells
T1 sequence (Q9Y2T5 whole entry): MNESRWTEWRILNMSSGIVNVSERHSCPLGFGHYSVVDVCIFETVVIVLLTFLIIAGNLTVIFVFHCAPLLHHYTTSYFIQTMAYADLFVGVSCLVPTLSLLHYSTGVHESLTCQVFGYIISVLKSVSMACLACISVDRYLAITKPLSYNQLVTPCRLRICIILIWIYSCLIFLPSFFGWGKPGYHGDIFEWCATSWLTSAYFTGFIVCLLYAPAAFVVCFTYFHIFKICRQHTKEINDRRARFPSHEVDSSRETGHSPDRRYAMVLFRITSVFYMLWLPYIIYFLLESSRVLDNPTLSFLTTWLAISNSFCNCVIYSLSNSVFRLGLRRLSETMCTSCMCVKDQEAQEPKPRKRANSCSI
The test can be described thus: GPR52 activity: TR-FRET cAMP assay (LANCE Ultra cAMP Kit). It counts as cell-based. The settings on record: Flp-In-CHO cells stably expressing recombinant human GPR52; cAMP production, normalized to positive control. As to the method: TR-FRET cAMP assays were performed using commercially available assay kits (LANCE™ Ultra cAMP Kit). Controls and compounds were solubilized in DMSO using ½ log dilution to generate duplicate 10-point dose response curves in 384-well polypropylene compound plates. Sixty nanoliters of the diluted compounds were transferred into 384-well NBS assay plates and further diluted to 1× with the addition of 2000 cells per well. Flp-In™-CHO cells that stably express recombinant human GPR52.
Cells were harvested with cell stripper and resuspended in Stimulation Buffer (5 mM HEPES, 0.1% bovine serum albumin (BSA), 0.5 mM IBMX, pH 7.4). After thirty minutes incubation at room temperature, detection reagents were added to each well. Plates were then incubated for 30 minutes at room temperature. The LANCE™ Ultra cAMP assay uses time-resolved fluorescence resonance energy transfer (TR-FRET) to detect cAMP production; this signal was quantified using a Pherastar multi-mode plate reader.
Dose-response curves were generated from the fluorescence counts normalized to the positive control. E EC50 values were obtained using a nonlinear regression curve-fitting program.
(TR-FRET usually uses a lanthanide donor and a delayed reading to cut background.)
For `NC(=O)C1CCN(c2cc(Cc3cccc(C(F)(F)F)c3)ccn2)CC1` [Compound 41, 1-(4-{[3-(trifluoromethyl)phenyl]methyl}pyridin-2-yl)piperidine-4-carboxamide], the EC50 (as a rule, the concentration that produces a half-maximal response) was 25 to 100 nM.
The figure for `N#Cc1cc(Cc2ccnc(-c3ccc4c(c3)CCNC4=O)c2)ccc1F` [Compound 42, 2-fluoro-5-{[2-(1-oxo-1,2,3,4-tetrahydroisoquinolin-6-yl)pyridin-4-yl]methyl}benzonitrile] is 101 to 1000 nM; for `Cc1cc(-c2cc(C(O)c3cccc(C(F)(F)F)c3)ccn2)ccc1C(N)=O` (stereo not shown) [Compound 43, 4-(4-{hydroxy [3-(trifluoromethyl)phenyl]methyl}pyridin-2-yl)-2-methylbenzamide] it is more than 1000 nM.
The figure for `Cc1cc(-c2cc(Cc3cncc(S(C)(=O)=O)c3)ccn2)ccc1C(N)=O` [Compound 44, 4-{4-[(5-methanesulfonylpyridin-3-yl)methyl]pyridin-2-yl}-2-methylbenzamide] is less than 25 nM.
